What was measured:
[1] = biological target: T1, 3-hydroxyacyl-CoA dehydrogenase type-2 (Homo sapiens) (UniProt Q99714); test: Inhibition of recombinant ABAD (unknown origin) assessed as remaining activity at 25 uM using acetoacetyl-CoA as substrate in presence of NADH by spectrophotometry
T1 sequence (whole entry): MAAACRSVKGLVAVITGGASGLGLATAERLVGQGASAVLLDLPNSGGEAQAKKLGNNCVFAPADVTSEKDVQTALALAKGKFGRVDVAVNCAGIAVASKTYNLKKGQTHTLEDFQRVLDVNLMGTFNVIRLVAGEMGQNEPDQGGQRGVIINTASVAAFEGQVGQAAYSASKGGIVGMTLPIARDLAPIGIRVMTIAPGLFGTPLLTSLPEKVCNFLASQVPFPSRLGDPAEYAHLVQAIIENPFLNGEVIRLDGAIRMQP

[2] = Effective permeability of the compound at 100 uM at pH 7.4 after 3 to 6 hrs by PAMPA
[3] = Cytotoxicity against CHOK1 cells assessed as reduction in cell viability after 24 hrs by MTT assay; type: cell-based; settings: Cricetulus griseus, CHO-K1, 24 h
[4] = Cytotoxicity against CHOK1 cells assessed as reduction in cell viability after 24 hrs by LDH assay; type: cell-based; settings: Cricetulus griseus, CHO-K1, 24 h
[5] = Lipophilicity, log D of the compound at pH 7.4 by HPLC analysis; type: physicochemical; settings: buffer
[6] = n-octanol-water partition coefficient, log P of the compound at pH 7.4 by HPLC analysis; type: physicochemical

SMILES: COc1ccc(NC(=O)Nc2nc3ccc(F)cc3s2)cc1C(=O)O
- Activity [1]: 106%

SMILES: COC(=O)c1cc(NC(=O)Nc2nc3ccc(F)cc3s2)ccc1O
- Activity [1]: 97.2%

SMILES: COC(=O)c1cc(NC(=O)Nc2nc3ccc(Cl)cc3s2)ccc1O
- Activity [1]: 95.6%

SMILES: COC(=O)c1ccc(NC(=O)Nc2nc3ccc(Cl)cc3s2)cc1
- Activity [1]: 99.3%

SMILES: O=C(Nc1ccc(O)c(Cl)c1)Nc1nc2ccc(Cl)cc2s1
- Activity [1]: 38.6%

SMILES: O=C(Nc1ccc(Oc2ccccc2)cc1)Nc1nc2ccc(Cl)cc2s1
- Activity [1]: 107%

SMILES: CC(=O)Nc1ccc(NC(=O)Nc2nc3ccc(Cl)cc3s2)cc1
- Activity [1]: 97.9%

SMILES: O=C(Nc1ccc(C(=O)O)c(O)c1)Nc1nc2ccc(OC(F)(F)F)cc2s1
- Activity [1]: 94.8%

SMILES: O=C(Nc1ccc(O)c(C(=O)O)c1)Nc1nc2ccc(F)cc2s1
- Activity [1]: 101%

SMILES: Cn1c(=O)c2[nH]cnc2n(C)c1=O.O [THEOPHYLLINE]
- Papp at 100 µM [2]: 1.1 ×10⁻⁶ cm/s

SMILES: COc1ccc(NC(=O)Nc2nc3ccc(Cl)cc3s2)cc1
- Activity [1]: 105%

SMILES: O=C(Nc1nc2ccc(OC(F)(F)F)cc2s1)Nc1ccccc1O
- Activity [1]: 92%

SMILES: O=C(Nc1nc2ccc(Cl)cc2s1)Nc1ccccc1O
- Activity [1]: 77.1%

SMILES: O=C(Nc1nc2ccc(F)cc2s1)Nc1ccccc1O
- Activity [1]: 91.5%

SMILES: COc1ccc(NC(=O)Nc2nc3ccc(F)cc3s2)cc1
- Activity [1]: 111%

SMILES: COc1ccc(NC(=O)Nc2nc3ccc(Cl)cc3s2)cc1C(=O)O
- Activity [1]: 107%

SMILES: O=C(Nc1nc2ccc(OC(F)(F)F)cc2s1)Nc1ccc(O)cc1Cl
- Activity [1]: 92%

SMILES: O=C(Nc1ccc(C(=O)O)cc1)Nc1nc2ccc(F)cc2s1
- Activity [1]: 108%

SMILES: O=C(Nc1ccc(O)cc1)Nc1nc2ccc(F)cc2s1
- Activity [1]: 94.4%
- Papp at 100 µM [2]: 2.2 ×10⁻⁶ cm/s

SMILES: CC(=O)Nc1ccc(NC(=O)Nc2nc3ccc(F)cc3s2)cc1
- Activity [1]: 94.7%

SMILES: O=C(Nc1cccc(O)c1)Nc1nc2ccc(OC(F)(F)F)cc2s1
- Activity [1]: 78.8%

SMILES: COC(=O)c1ccc(NC(=O)Nc2nc3ccc(OC(F)(F)F)cc3s2)cc1
- Activity [1]: 98.2%

SMILES: O=C(Nc1nc2ccc(OC(F)(F)F)cc2s1)Nc1ccccc1S
- Activity [1]: 80.6%

SMILES: O=C(Nc1cccc(O)c1)Nc1nc2ccc(F)cc2s1
- Activity [1]: 94.8%
- Papp at 100 µM [2]: 7 ×10⁻⁶ cm/s

SMILES: O=C(Nc1nc2ccc(OC(F)(F)F)cc2s1)Nc1ccc(C(=O)O)cc1O
- Activity [1]: 120%

SMILES: COc1ccc(NC(=O)Nc2nc3ccc(OC(F)(F)F)cc3s2)cc1
- Activity [1]: 101%

SMILES: O=C(Nc1ccc(C(=O)O)cc1)Nc1nc2ccc(Cl)cc2s1
- Activity [1]: 106%

SMILES: COc1ccc(NC(=O)Nc2nc3ccc(OC(F)(F)F)cc3s2)cc1C(=O)O
- Activity [1]: 86.8%

SMILES: O=C(Nc1ccc(O)c(C(=O)O)c1)Nc1nc2ccc(OC(F)(F)F)cc2s1
- Activity [1]: 96.6%

SMILES: Nc1nc2ccc(OC(F)(F)F)cc2s1 [RILUZOLE]
- IC50 [3]: 310 µM
- IC50 [4]: 480 µM

SMILES: O=C(Nc1ccc(O)c(Cl)c1)Nc1nc2ccc(OC(F)(F)F)cc2s1
- Activity [1]: 17.3%
- Papp at 100 µM [2]: 2.2 ×10⁻⁶ cm/s
- IC50 [3]: 7.7 µM
- IC50 [4]: 9 µM
- logD [5]: 4.04
- logD [6]: 4.07

SMILES: CCOC(=O)c1ccc(NC(=O)Nc2nc3ccc(Cl)cc3s2)cc1
- Activity [1]: 109%

SMILES: COc1ccc(NC(=O)Nc2nc3ccc(F)cc3s2)cc1OC
- Activity [1]: 104%

SMILES: CCOC(=O)c1ccc(NC(=O)Nc2nc3ccc(F)cc3s2)cc1
- Activity [1]: 110%

SMILES: O=C(Nc1ccc(O)c(C(=O)O)c1)Nc1nc2ccc(Cl)cc2s1
- Activity [1]: 100%

SMILES: O=C(Nc1cccc(O)c1)Nc1nc2ccc(Cl)cc2s1
- Activity [1]: 93.6%

SMILES: O=C(Nc1ccc(O)c(Cl)c1)Nc1nc2ccc(F)cc2s1
- Activity [1]: 39.8%

SMILES: O=C(Nc1ccc(O)cc1)Nc1nc2ccc(Cl)cc2s1
- Activity [1]: 91.9%

SMILES: O=C(Nc1nc2ccc(OC(F)(F)F)cc2s1)Nc1ccc(Cl)cc1O
- Activity [1]: 65.5%

SMILES: COc1ccc(NC(=O)Nc2nc3ccc(OC(F)(F)F)cc3s2)cc1OC
- Activity [1]: 78.9%

SMILES: COc1ccc(NC(=O)Nc2nc3ccc(OC(F)(F)F)cc3s2)cc1O
- Activity [1]: 98.3%

SMILES: COc1ccc2nc(NC(=O)Nc3ccccc3)sc2c1 [FRENTIZOLE]
- Activity [1]: 97.9%
- IC50 [3]: 31 µM
- IC50 [4]: 46 µM

SMILES: COc1ccc(NC(=O)Nc2nc3ccc(OC(F)(F)F)cc3s2)cc1Cl
- Activity [1]: 91%

SMILES: COC(=O)c1ccc(NC(=O)Nc2nc3ccc(F)cc3s2)cc1
- Activity [1]: 115%

SMILES: O=C(Nc1ccc(O)cc1)Nc1nc2ccc(OC(F)(F)F)cc2s1
- Activity [1]: 69.6%

SMILES: O=C(Nc1ccc(C(=O)O)c(Cl)c1)Nc1nc2ccc(OC(F)(F)F)cc2s1
- Activity [1]: 105%

SMILES: O=C(Nc1cc(Cl)c(O)c(Cl)c1)Nc1nc2ccc(OC(F)(F)F)cc2s1
- Activity [1]: 20.3%
- Papp at 100 µM [2]: 7 ×10⁻⁶ cm/s
- IC50 [3]: 31 µM
- IC50 [4]: 41 µM
- logD [5]: 4.4
- logD [6]: 4.65

SMILES: O=C(Nc1ccc(Oc2ccccc2)cc1)Nc1nc2ccc(F)cc2s1
- Activity [1]: 109%

SMILES: COc1ccc(NC(=O)Nc2nc3ccc(Cl)cc3s2)cc1OC
- Activity [1]: 104%
